US20240374692A1, “A NOVEL ACYLATED INSULIN ANALOG” (SUNSHINE LAKE PHARMA CO., LTD., priority 2021, published 2024)

Tests used:
normal C57BL/6 mice = assay: Hypoglycemic effect, single subcutaneous administration to normal C57BL/6 mice; format: in vivo; design: blood glucose: unit not given here; conditions: for blood glucose / effective blood glucose control time / time after administration at which blood glucose reached the lowest level / time after administration at which blood glucose returned to normal: Degludec 200 nmol/Kg, others 1400 nmol/Kg; for blood glucose: Mean ± SEM, n = 6; for blood glucose compared with the control group: 1 h after single S.C. administration
Experimental: SPF grade C57BL/6 mice were reared in a suitable rearing box in a barrier environment, with a rearing temperature of 20-26° C., a humidity of 40-70%, a time between day and night of 12 h/12 h, and the mice had free access to standard food and autoclaved sterilization water. After a 3-day quarantine period and a 2-day acclimation period, random blood glucose was measured and mice were weighed. Mice were divided into 6 groups according to random blood glucose and body weight.
Single subcutaneous administration (S.C.) was used to administer the corresponding vehicle or drug. The control group was administered the vehicle PBS without fasting during the whole process, and the animals were allowed to eat and drink freely. Random blood glucose values of C57 mice were measured before administration and at 0.25, 0.5, 1, 2, 4, 6, 8, 10, 24, 48, 54, 72 and 96 hours after administration.
All raw data were entered into Excel files and expressed as Mean±SEM. Statistical analysis of data was performed using Graphpad Prism 7.0 software, one-way or two-way ANOVA comparison method, and P<0.05 was used as the criterion for significant differences.

insulin receptor B = target: T1, insulin receptor B (Homo sapiens, UniProt P06213); assay: Insulin receptor B autophosphorylation in transfected cells (Cisbio Phospho-IR beta Tyr1150/1151 kit); format: cell-based; conditions: for Relative HI activity: relative to human insulin
T1 construct: expressed in transfected cells
Experimental: The phosphorylation level of insulin receptor B was detected by Cisbio's Phospho-IR beta (Tyr1150/1151) kit method to evaluate the biological activity of insulin. The cells were seeded into a 96-well plate overnight, and after the serum in the medium was removed, 40 μl of serum-free medium was added to culture for about 4 h. Then a dilution series of insulin derivatives were prepared with blank solution (0.6% casein, 0.06 mg/mL EDTA, 1×DPBS) and incubated with cells in the 96-well plate for 5 min in a CO2 incubator (37° C., 5% CO2). The liquid in the 96-well plate was poured off, 100 µL of a mixture of lysis buffer (2% Triton X-100, 150 mM NaCl, 50 mM HEPES, pH=7) and inhibitor (Blocking Reagent in the kit) was added to lyse the cells, then the plate was shaken at 350 rpm for 30 min. Relative activity (in percent (%)) was assessed by measuring insulin receptor phosphorylation levels in the supernatant after cell lysis and fitting a curve to the data using nonlinear regression in Graphpad Prism 5 software. Related assays were also used, in which the blank solution also contained 1.5% HSA to simulate physiological conditions. Changes in the phosphorylation levels of the insulin-activated insulin receptors of the invention were detected as an indirect reflection of the albumin binding activity.

[1] = 0 h (before administration), single S.C.

T1 sequence (P06213 28-758 limits assumed): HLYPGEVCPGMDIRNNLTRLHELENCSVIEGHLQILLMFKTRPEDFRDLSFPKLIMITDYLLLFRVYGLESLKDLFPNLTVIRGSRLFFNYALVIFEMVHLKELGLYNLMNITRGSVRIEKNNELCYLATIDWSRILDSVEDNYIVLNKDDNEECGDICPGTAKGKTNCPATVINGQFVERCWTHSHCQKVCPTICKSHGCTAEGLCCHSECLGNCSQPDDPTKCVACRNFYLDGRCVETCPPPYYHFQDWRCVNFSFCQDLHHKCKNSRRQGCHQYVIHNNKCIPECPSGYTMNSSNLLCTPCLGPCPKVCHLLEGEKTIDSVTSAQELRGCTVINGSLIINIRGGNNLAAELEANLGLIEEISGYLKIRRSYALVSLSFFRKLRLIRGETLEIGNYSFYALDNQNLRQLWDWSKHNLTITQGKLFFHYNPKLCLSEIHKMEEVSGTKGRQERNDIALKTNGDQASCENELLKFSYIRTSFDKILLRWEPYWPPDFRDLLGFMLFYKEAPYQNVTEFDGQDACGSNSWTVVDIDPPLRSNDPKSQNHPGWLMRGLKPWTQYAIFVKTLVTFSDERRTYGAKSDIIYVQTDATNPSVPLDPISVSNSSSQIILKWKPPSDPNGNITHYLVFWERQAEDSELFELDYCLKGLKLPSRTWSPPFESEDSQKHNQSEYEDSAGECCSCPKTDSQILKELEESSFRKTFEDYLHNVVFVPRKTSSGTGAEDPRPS
T1 sequence (P06213 763-1382 partner limits assumed): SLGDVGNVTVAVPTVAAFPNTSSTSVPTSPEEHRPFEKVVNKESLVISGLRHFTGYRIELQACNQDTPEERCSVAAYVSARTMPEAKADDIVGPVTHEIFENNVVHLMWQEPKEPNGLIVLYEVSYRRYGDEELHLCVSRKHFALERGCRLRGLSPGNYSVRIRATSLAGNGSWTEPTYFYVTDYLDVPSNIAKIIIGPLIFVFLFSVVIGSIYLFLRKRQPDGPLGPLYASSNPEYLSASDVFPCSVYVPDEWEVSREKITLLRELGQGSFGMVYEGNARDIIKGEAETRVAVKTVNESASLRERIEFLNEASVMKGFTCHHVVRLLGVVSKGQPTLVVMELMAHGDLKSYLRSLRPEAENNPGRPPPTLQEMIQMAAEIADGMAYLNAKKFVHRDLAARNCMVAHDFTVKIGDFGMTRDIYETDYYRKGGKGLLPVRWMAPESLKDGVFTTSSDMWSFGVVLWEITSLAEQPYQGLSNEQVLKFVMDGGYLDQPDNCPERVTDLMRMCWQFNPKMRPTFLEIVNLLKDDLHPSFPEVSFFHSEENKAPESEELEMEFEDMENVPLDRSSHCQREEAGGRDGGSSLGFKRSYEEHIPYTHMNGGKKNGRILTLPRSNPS

Substance	blood glucose (normal C57BL/6 mice; [1])	blood glucose (normal C57BL/6 mice; 0.25 h after single S.C.)	blood glucose (normal C57BL/6 mice; 0.5 h after single S.C.)	blood glucose compared with the control group (normal C57BL/6 mice)	blood glucose (normal C57BL/6 mice; 1 h after single S.C.)	blood glucose (normal C57BL/6 mice; 2 h after single S.C.)	blood glucose (normal C57BL/6 mice; 4 h after single S.C.)	blood glucose (normal C57BL/6 mice; 6 h after single S.C.)	blood glucose (normal C57BL/6 mice; 8 h after single S.C.)	blood glucose (normal C57BL/6 mice; 10 h after single S.C.)	blood glucose (normal C57BL/6 mice; 24 h after single S.C.)	blood glucose (normal C57BL/6 mice; 48 h after single S.C.)	blood glucose (normal C57BL/6 mice; 72 h after single S.C.)	blood glucose (normal C57BL/6 mice; 96 h after single S.C.)	effective blood glucose control time (normal C57BL/6 mice; single S.C.) [h]	time after administration at which blood glucose reached the lowest level (normal C57BL/6 mice; single S.C.) [h]	time after administration at which blood glucose returned to normal (normal C57BL/6 mice; single S.C.) [h]	further results
A14E, B16E, B25H, B29K(N(ε)-COOH(CH2)16CO-L-Lys-CO(CH2)2CO—(OEG)2), desB30 human insulin analog [Insulin-a4]	8.0 ± 1.3	9.0 ± 1.9	6.2 ± 1.6	decreased significantly	5.0 ± 0.5	4.8 ± 0.5	3.9 ± 0.5	3.8 ± 1.1	3.2 ± 0.6	3.0 ± 0.6	5.3 ± 1.8	8.7 ± 0.9	8.0 ± 0.9	7.9 ± 1.1	48	10	48	–
insulin degludec [reference compound]	7.8 ± 0.8	6.5 ± 1.1	5.0 ± 0.4	decreased significantly	4.7 ± 1.1	4.4 ± 1.3	5.4 ± 0.6	5.4 ± 1.2	5.8 ± 0.8	5.7 ± 0.9	8.3 ± 0.9	8.0 ± 0.3	8.0 ± 0.8	7.9 ± 0.3	24	2	24	EC50 (insulin receptor B; 0% HSA): 4.55 nM; Relative HI activity (insulin receptor B; 0% HSA): 27.07%; EC50 (insulin receptor B; 1.5% HSA): 20.6 nM; Relative 0% HSA activity (insulin receptor B; 1.5% HSA relative to 0% HSA): 22.10%; Relative HI activity (insulin receptor B; 1.5% HSA): 12.59%
